For data set [1], the target named is T1, Nek2 (Homo sapiens, UniProt P51955).
T1 construct: purchased Invitrogen
T1 sequence (P51955 1-445): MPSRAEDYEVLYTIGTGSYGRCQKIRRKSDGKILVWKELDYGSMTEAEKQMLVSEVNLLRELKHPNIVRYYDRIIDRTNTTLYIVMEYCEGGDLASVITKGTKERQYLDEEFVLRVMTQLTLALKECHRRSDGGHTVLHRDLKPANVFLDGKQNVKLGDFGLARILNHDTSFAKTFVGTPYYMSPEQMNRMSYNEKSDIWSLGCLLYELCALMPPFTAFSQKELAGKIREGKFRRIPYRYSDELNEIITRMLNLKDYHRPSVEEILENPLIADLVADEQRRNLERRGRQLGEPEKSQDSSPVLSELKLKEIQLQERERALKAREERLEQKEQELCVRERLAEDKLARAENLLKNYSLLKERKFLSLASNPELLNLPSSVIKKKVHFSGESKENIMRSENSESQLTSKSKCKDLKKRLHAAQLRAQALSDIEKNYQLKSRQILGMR
Kind of data set: Nek2 Caliper kinase inhibition assay. The class given is biochemical. To be noted: 30 μM ATP; for inhibition at 50 µM: @ 50 μM compound.

The target of another data set is CDK2 (Homo sapiens, UniProt P24941). Kind of data set: CDK2 kinase inhibition assay. Format: biochemical. Conditions: for IC50: 12.5 μM ATP.
The target in another data set is Plk1 (Homo sapiens, UniProt P53350). Description: Separate counter-screen against Plk1. The class given is biochemical. On the procedure: To assess the broader kinase selectivity of this series of 6-(dialkylamino)vinyl-purines, the diethylamino derivative 71 was chosen for wider screening against 24 kinases at 2 μM inhibitor concentration (Figure 5 – method as in reference 12).
Chain of Plk1 (P53350 whole entry): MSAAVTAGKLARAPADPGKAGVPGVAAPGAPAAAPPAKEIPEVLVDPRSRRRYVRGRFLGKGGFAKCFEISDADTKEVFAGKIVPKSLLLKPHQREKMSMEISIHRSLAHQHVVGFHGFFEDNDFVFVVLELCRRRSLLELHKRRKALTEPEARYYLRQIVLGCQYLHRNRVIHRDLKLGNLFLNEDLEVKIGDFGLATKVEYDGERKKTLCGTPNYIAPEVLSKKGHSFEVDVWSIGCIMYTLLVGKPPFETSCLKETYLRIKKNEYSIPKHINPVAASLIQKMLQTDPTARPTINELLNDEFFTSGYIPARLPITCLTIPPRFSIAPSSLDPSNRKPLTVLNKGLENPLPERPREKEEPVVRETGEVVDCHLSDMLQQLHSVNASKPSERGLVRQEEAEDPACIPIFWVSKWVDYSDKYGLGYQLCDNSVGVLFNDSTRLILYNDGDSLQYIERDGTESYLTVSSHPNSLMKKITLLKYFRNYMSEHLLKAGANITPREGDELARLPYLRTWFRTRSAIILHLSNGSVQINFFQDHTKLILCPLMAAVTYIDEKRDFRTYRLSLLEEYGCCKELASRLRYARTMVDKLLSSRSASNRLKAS
Background: The purpose of a counterscreen is to sort out artefacts and off-target activity.

Data set [2] has as its target T1, Nek2. Description: Effect of pre-incubation of Nek2 with inhibitor on IC50 (time-dependence). The class given is biochemical. The source says: www.impactjournals.com/oncotarget/ Oncotarget, Supplementary Materials 2016
Time after inhibitor addition
(1 picture or pasted object on this page, not shown here)

In data set [3] the target is T1, Nek2. Description: Nek2 inhibition reversibility assay (rapid dilution). Format: biochemical. To be noted: 30 min pre-incubation at ten-fold IC50, rapid 100-fold dilution. On the procedure:
The reversible nature of Nek2 inhibition by enamine 70 was measured using a kinase inhibition-reversibility assay. […] This solution in reaction buffer was pre-incubated with inhibitor 70 at a concentration ten-fold its IC50, calculated to afford approximately 91% inhibition of Nek2. […] Following rapid 1:100 dilution, a reaction progress curve was generated by monitoring for levels of the phosphorylated substrate as described in reference 16 using the Caliper EZ Reader II instrument at different times throughout the duration of the reaction.

The mark [4] stands for this setting: 10 min after inhibitor addition.
Where [5] appears, read: 15 min after inhibitor addition.
[6] abbreviates: 30 min after inhibitor addition.
Setting [7] is: 60 min after inhibitor addition.

Experimental findings from paper PMC5386672, “Structure-guided design of purine-based probes for selective Nek2 inhibition” (Oncotarget, 2016) are described below.

The term IC50 denotes the concentration that inhibits the measured activity by half. Read a low IC50 as greater potency. The term inhibition denotes the share of the control response that was lost under treatment. The low end stands for little suppression, the high end for strong suppression. As a reminder, the Hill slope is a measure of the steepness of the concentration-response curve. In general, melting point refers to the temperature of the solid-liquid transition.

Entries after “also recorded” stand apart in the source; their conditions may differ. Bounds are passed on as bounds.

Molecule `CN(C)/C=C/c1nc(Nc2ccccc2)nc2[nH]cnc12` [Compound 70, (E)-6-(2-(Dimethylamino)vinyl)-N-phenyl-9H-purin-2-amine] came in with a melting point of 129 to 131 °C. In addition, the 50% inhibitory concentration (IC50) on Nek2 [1] (Caliper assay) came to 0.77 µM. This molecule also had an IC50 against CDK2 of 3 µM. 10 µM produced 41% inhibition against Plk1. For the same molecule, at Nek2 [2] (2 min after inhibitor addition), the Hill slope is recorded as 0.73 and the IC50 turned out to be 1.37 µM. Moreover, at Nek2 [2] (5 min after inhibitor addition), the Hill slope is recorded as 0.59 and 0.84 µM corresponded to half-maximal inhibition (IC50). On Nek2 [2] (setting [4]), this molecule came in with a Hill slope of 0.79 and an IC50 of 1.58 µM. On Nek2 [2] (setting [5]), this molecule yielded a Hill slope of 0.71 and an IC50 of 1.33 µM. On Nek2 [2] (setting [6]), the Hill slope was 0.72 and the midpoint of inhibition, the IC50, lay at 1.06 µM. Moreover, on Nek2 [2] (setting [7]), the Hill slope came out at 0.85 and the IC50 is 1.47 µM. The “time-dependence of Nek2 inhibition” value on Nek2 [2] (pre-incubation 2-60 min) is reported as “not to exhibit time-dependent Nek2 inhibition kinetics”. For the same molecule, the “reversibility of Nek2 inhibition” value at Nek2 [3] is given as “binds reversibly; also recorded: not an irreversible inhibitor”.

Consider `Nc1cccc(Nc2nc(OCC3CCCCC3)c3[nH]cnc3n2)c1` [Compound 22, 2-(3-Aminophenyl)amino-6-cyclohexylmethoxy-purine], for which the melting point is 117 to 118 °C (dec.). On Nek2 [1] (Caliper assay), this molecule showed an IC50 of 5.9 µM. The molecule also gave an IC50 at CDK2 of 0.7 µM.

Regarding `O=C(c1cccc(Nc2nc(OCC3CCCCC3)c3nc[nH]c3n2)c1)N1CCCCC1` [Compound 32, [3-(6-Cyclohexylmethoxy-9H-purin-2-ylamino)phenyl]piperidin-1-ylmethanone], the melting point lay within 133 to 135 °C. The molecule also returned an inhibition at 50 µM against Nek2 [1] of 57%. At CDK2, this molecule returned an IC50 of 18 µM.

For `O=C(Cc1cccc(Nc2nc(OCC3CCCCC3)c3nc[nH]c3n2)c1)NCCCn1ccnc1` [Compound 41, 2-[3-(6-Cyclohexylmethoxy-9H-purin-2-ylamino)phenyl]-N-(3-imidazol-1-yl-propyl)acetamide], the melting point lay within 192 to 193 °C. In addition, the IC50 at Nek2 [1] (Caliper assay) amounted to 6.13 µM. Further, the 50% inhibitory concentration (IC50) on CDK2 was 1.6 µM.

As to `O=C(Cc1cccc(Nc2nc(OCC3CCCCC3)c3nc[nH]c3n2)c1)NC1CCCC1` [Compound 35], the melting point lay within 228 to 229 °C. The molecule further gave an IC50 against Nek2 [1] (Caliper assay) of 4.1 µM. In addition, the IC50 against CDK2 was determined as 1.1 µM.

With `O=C(Cc1cccc(Nc2nc(OCC3CCCCC3)c3nc[nH]c3n2)c1)NC1CCCCC1` [Compound 36], the melting point lay in the range of 226 to 227 °C. The molecule also gave an IC50 against Nek2 [1] (Caliper assay) of 8.4 µM. In addition, the midpoint of inhibition against CDK2, the IC50, lay at 2.1 µM.

Consider `O=C(Cc1cccc(Nc2nc(OCC3CCCCC3)c3nc[nH]c3n2)c1)NCCCc1ccccc1` [Compound 47, 2-[3-(6-Cyclohexylmethoxy-9H-purin-2-ylamino)phenyl]-N-(3-phenylpropyl)acetamide], for which the melting point was in the range of 154 to 155 °C. On Nek2 [1] (Caliper assay), the “Nek2 IC50” value is “Inactive”. The IC50 on CDK2 was 10 µM.

The molecule `CC(C)CNC(=O)Cc1cccc(Nc2nc(OCC3CCCCC3)c3nc[nH]c3n2)c1` [Compound 34, 2-[3-(6-Cyclohexylmethoxy-9H-purin-2-anilino)]-N-isobutylacetamide] came in with a melting point of 144 to 145 °C. Besides, on Nek2 [1], the inhibition at 50 µM turned out to be 79%. On CDK2, this molecule registered an IC50 of 0.94 µM.

With `O=[N+]([O-])c1cccc(Nc2nc(OCC3CCCCC3)c3nc[nH]c3n2)c1` [Compound 20, 6-(Cyclohexylmethoxy)-N-(3-nitrophenyl)-9H-purin-2-amine], the melting point was 217 to 218 °C. Besides, the IC50 at Nek2 [1] (Caliper assay) is > 50 µM. The molecule further displayed a concentration for half-maximal inhibition (IC50) against CDK2 of 0.89 µM.

On to `CCCNC(=O)Cc1cccc(Nc2nc(OCC3CCCCC3)c3nc[nH]c3n2)c1` [Compound 39], for which the melting point was 141 to 142 °C (dec.). On Nek2 [1], this molecule gave an inhibition at 50 µM of 82%. At CDK2, this molecule registered an IC50 of 0.74 µM.

In turn, `CNC(=O)Cc1cccc(Nc2nc(OCC3CCCCC3)c3nc[nH]c3n2)c1` [Compound 15] yielded a melting point of 176 to 177 °C. This molecule also showed an IC50 at Nek2 [1] (Caliper assay) of 1.3 µM. This molecule showed an IC50 against CDK2 of 0.32 µM.

`CNC(=O)c1cccc(Nc2nc(OCC3CCCCC3)c3nc[nH]c3n2)c1` [Compound 10, 3-(6-Cyclohexylmethoxy-9H-purin-2-ylamino)-N-methylbenzamide]: the melting point was in the range of 252 to 254 °C. At Nek2 [1] (Caliper assay), this molecule had an IC50 of 15 µM. The molecule also gave an IC50 against CDK2 of 0.83 µM.

The molecule `O=S(=O)(Cc1cccc(Nc2nc(OCC3CCCCC3)c3nc[nH]c3n2)c1)N1CCNCC1` [Compound 50, 1-(3-(6-Cyclohexylmethoxy-9H-purin-2-ylamino)phenylmethanesulfonyl)piperazine] gave a melting point of 127 to 128 °C. At Nek2 [1] (Caliper assay), this molecule displayed an IC50 of 2.6 µM. Also, the midpoint of inhibition on CDK2, the IC50, lay at 0.45 µM.

Take `NC(=S)c1cccc(Nc2nc(OCC3CCCCC3)c3nc[nH]c3n2)c1` [Compound 13, 3-(6-Cyclohexylmethoxy-9H-purin-2-ylamino)thiobenzamide]: the melting point was 148 to 149 °C (dec.). 50 µM produced 46% inhibition on Nek2 [1]. Further, the IC50 at CDK2 amounted to 0.33 µM.

Take `CC(C)N(C(=O)Cc1cccc(Nc2nc(OCC3CCCCC3)c3nc[nH]c3n2)c1)C(C)C` [Compound 38]: the melting point lay in the range of 126 to 127 °C. This molecule also yielded an IC50 on Nek2 [1] (Caliper assay) of 21 µM. Half-maximal inhibition at CDK2 (IC50) was put at 3.2 µM.

`CCC(C)Oc1nc(Nc2cccc(CC(=O)NCCCN(C)C)c2)nc2[nH]cnc12` (racemic) [Compound 60, (±)-2-[3-(6-sec-Butoxy-9H-purin-2-ylamino)phenyl]-N-(3-dimethylaminopropyl)acetamide] showed a melting point of 97 to 98 °C. The same molecule displayed an IC50 on Nek2 [1] (Caliper assay) of 4.9 µM. Also, the IC50 against CDK2 came to 0.41 µM. Moreover, the “selectivity for CDK2 over Nek2” value on CDK2 (from IC50 values) came out at 10 fold.

The molecule `O=[N+]([O-])c1ccc(Nc2nc(OCC3CCCCC3)c3nc[nH]c3n2)cc1` [Compound 19, 6-(Cyclohexylmethoxy)-N-(4-nitrophenyl)-9H-purin-2-amine] yielded a melting point of 180 to 181 °C. Moreover, the IC50 on Nek2 [1] (Caliper assay) is > 50 µM. Besides, the IC50 against CDK2 turned out to be 1.9 µM.

On to `O=C(Nc1ccc(Nc2nc(OCC3CCCCC3)c3nc[nH]c3n2)cc1)c1ccncc1` [Compound 30, N-[4-(6-Cyclohexylmethoxy-9H-purin-2-ylamino)phenyl]isonicotinamide], for which the melting point is 248 to 250 °C (dec.). Moreover, the inhibition at 50 µM at Nek2 [1] worked out at 51%. The molecule also yielded a half-maximal inhibitory concentration (IC50) on CDK2 of 2.2 µM.

In turn, `CN(C)CCCCNC(=O)Cc1cccc(Nc2nc(OCC3CCCCC3)c3nc[nH]c3n2)c1` [Compound 45, 2-[3-(6-Cyclohexylmethoxy-9H-purin-2-ylamino)phenyl]-N-(4-dimethylaminobutyl)acetamide] had a melting point of 125 to 127 °C. The molecule further came in with a half-inhibitory concentration (IC50) against Nek2 [1] (Caliper assay) of 0.7 µM. At CDK2, the IC50 is 0.86 µM.

As to `Nc1ccc(Nc2nc(OCC3CCCCC3)c3[nH]cnc3n2)cc1` [Compound 21, 2-(4-Aminophenyl)amino-6-cyclohexylmethoxy-purine], the melting point is 228 to 230 °C. Moreover, at Nek2 [1] (Caliper assay), half-maximal inhibition (IC50) required 6.3 µM. This molecule also had an IC50 on CDK2 of 0.22 µM.
